Results from ChEMBL document CHEMBL5661943, “ASAP - In vitro antiviral effect” (2024).

What was measured:
Zika virus = experiment: EC50 is reported via analysis of immunofluorescence staining. The assay has been performed by Icahn School of Medicine at Mount Sinai.; format: functional, organism-based, Chlorocebus sabaeus, VeroE6/TMPRSS2; conditions: Zika virus; for EC90: P-gp concentration 2 uM, P-gp inhibitor Elacidar
dengue virus type 2 = experiment: Functional immunofluorescence assay to measure dose dependent changes in antiviral-drug inhibitory efficacy against Dengue virus type 2 Thailand/16681/84 in Vero E6/TMPRSS2 cells (cotreated with P-gp inhibitor, Elacridar). Cells are treated with antiviral candidates that are serially diluted, following infection, cells are fixed. EC50 is reported via analysis of immunofluorescence staining. The assay has been performed by Icahn School of Medicine at Mount Sinai.; format: organism-based, Chlorocebus sabaeus, VeroE6/TMPRSS2; conditions: Dengue virus; for EC90: P-gp concentration 2 uM, P-gp inhibitor Elacidar

For N#Cc1cc(Cl)cc(C(=O)Nc2ccc3c(c2)CNC3)c1, the EC50 (Zika virus; VeroE6/TMPRSS2) was 47.2 µM, the EC90 (Zika virus; VeroE6/TMPRSS2, Baseline response 0 %, Hill slope -12.375, Maximum measured 129.405 %, Maximum response 100 %, Minimum measured 33.162 %, R squared 0.602) was greater than 50 µM and the EC50 (dengue virus type 2; VeroE6/TMPRSS2) was greater than 50 µM. The EC90 (dengue virus type 2; VeroE6/TMPRSS2, Maximum measured 57.395 %, Minimum measured 32.413 %) was greater than 50 µM.

In the case of Cc1ccc(S(=O)(=O)CNC(=O)[C@H](Nc2ccc3c(c2)CNC3)c2cc(Cl)cc3[nH]ncc23)cc1, the EC50 (Zika virus; VeroE6/TMPRSS2) is reported as greater than 5.56 µM, the EC90 (Zika virus; VeroE6/TMPRSS2, Baseline response 0 %, Hill slope -0.504, Maximum measured 105.322 %, Maximum response 100 %, Minimum measured 58.532 %, R squared 0.723) is reported as greater than 5.56 µM and the EC50 (dengue virus type 2; VeroE6/TMPRSS2) is reported as greater than 50 µM. The EC90 (dengue virus type 2; VeroE6/TMPRSS2, Baseline response 0 %, Hill slope 0.271, Maximum measured 147.697 %, Maximum response 100 %, Minimum measured 56.785 %, R squared 0.117) was greater than 50 µM.

O=C(Nc1ccc2c(c1)CNC2)c1cc(Cl)ccc1SC1CCCC1 showed an EC50 (Zika virus; VeroE6/TMPRSS2) greater than 16.7 µM, an EC90 (Zika virus; VeroE6/TMPRSS2, Maximum measured 121.888 %, Minimum measured 81.617 %) greater than 16.7 µM and an EC50 (dengue virus type 2; VeroE6/TMPRSS2) greater than 16.7 µM. The EC90 (dengue virus type 2; VeroE6/TMPRSS2, Maximum measured 58.655 %, Minimum measured 40.644 %) was greater than 16.7 µM.

Work on N#Cc1cc(Cl)cc([C@H](C#N)Nc2ccc3c(c2)CNC3)c1 yielded an EC50 (Zika virus; VeroE6/TMPRSS2) greater than 50 µM, an EC90 (Zika virus; VeroE6/TMPRSS2, Baseline response 0 %, Hill slope -0.289, Maximum measured 115.578 %, Maximum response 100 %, Minimum measured 78.039 %, R squared 0.102) greater than 50 µM and an EC50 (dengue virus type 2; VeroE6/TMPRSS2) greater than 16.7 µM. The EC90 (dengue virus type 2; VeroE6/TMPRSS2, Maximum measured 121.447 %, Minimum measured 87.688 %) was greater than 16.7 µM.

Compound O=C(Nc1ccc2c(c1)CNC2)c1cc(Br)cc2[nH]c(C3CCOCC3)nc12 has an EC50 (Zika virus; VeroE6/TMPRSS2) greater than 5.56 µM, an EC90 (Zika virus; VeroE6/TMPRSS2, Maximum measured 127.67 %, Minimum measured 33.686 %) greater than 5.56 µM and an EC50 (dengue virus type 2; VeroE6/TMPRSS2) greater than 5.56 µM. It also gave an EC90 (dengue virus type 2; VeroE6/TMPRSS2, Maximum measured 89.147 %, Minimum measured 35.738 %) greater than 5.56 µM.

In the case of Cc1ccc2cc(Cl)cc(C(=O)Nc3ccc4c(c3)CNC4)c2n1, the EC50 (Zika virus; VeroE6/TMPRSS2) is reported as greater than 16.7 µM, the EC90 (Zika virus; VeroE6/TMPRSS2, Maximum measured 117.23 %, Minimum measured 34.966 %) is reported as greater than 16.7 µM and the EC50 (dengue virus type 2; VeroE6/TMPRSS2) is reported as greater than 5.56 µM. The EC90 (dengue virus type 2; VeroE6/TMPRSS2, Maximum measured 235.971 %, Minimum measured 154.17 %) was greater than 5.56 µM.

O=C(Nc1cnc2c(c1)CNCC2)c1cc(Cl)cc2[nH]ncc12 showed an EC50 (Zika virus; VeroE6/TMPRSS2) of 45.4 µM, an EC90 (Zika virus; VeroE6/TMPRSS2, Baseline response 0 %, Hill slope -15.177, Maximum measured 54.077 %, Maximum response 44.083 %, Minimum measured 8.284 %, R squared 0.548) greater than 50 µM and an EC50 (dengue virus type 2; VeroE6/TMPRSS2) greater than 50 µM. The EC90 (dengue virus type 2; VeroE6/TMPRSS2, Maximum measured 104.893 %, Minimum measured 59 %) was greater than 50 µM.

O=C(NCC1CCOCC1)[C@H](Nc1ccc2c(c1)CNC2)c1cc(Cl)cc2[nH]ncc12 was tested, and the EC50 (Zika virus; VeroE6/TMPRSS2) was greater than 16.7 µM, the EC90 (Zika virus; VeroE6/TMPRSS2, Maximum measured 73.647 %, Minimum measured 25.821 %) was greater than 16.7 µM and the EC50 (dengue virus type 2; VeroE6/TMPRSS2) was greater than 16.7 µM. It also gave an EC90 (dengue virus type 2; VeroE6/TMPRSS2, Maximum measured 245.258 %, Minimum measured 99.219 %) greater than 16.7 µM.

CCOC(=O)[C@H]1[C@H](c2cc(Cl)cc(NC(=O)OCc3ccccc3)c2)[C@H]1c1cccc(-c2nnn[nH]2)c1 was tested, and the EC50 (Zika virus; VeroE6/TMPRSS2) was 39.5 µM, the EC90 (Zika virus; VeroE6/TMPRSS2, Baseline response 0 %, Hill slope -17.688, Maximum measured 145.242 %, Maximum response 100 %, Minimum measured 1.538 %, R squared 0.641) was 44.8 µM and the EC50 (dengue virus type 2; VeroE6/TMPRSS2) was 10.1 µM. It also gave an EC90 (dengue virus type 2; VeroE6/TMPRSS2, Baseline response 0 %, Hill slope -0.678, Maximum measured 159.228 %, Maximum response 100 %, Minimum measured 7.966 %, R squared 0.513) greater than 50 µM.
